In patent publication US6297266A, “Thiazole derivatives” (Hoffmann-La Roche Inc., priority 1998, dated 2001):

Biological target: T1, vitronectin receptor αvβ3 (Homo sapiens, UniProt P05106+P06756)
T1 construct: Human placenta is stored at -80° C. immediately after its excision; from tissue; host or cells: human placenta
Assay: inhibition of the binding of fibrinogen to vitronectin receptor αvβ3 (ELISA)
Conditions: fibrinogen binding to immobilized αvβ3 from human placenta, pH 7.4, read-out: VNR IC50
Protocol: The inhibition of the binding of adhesive proteins such as e.g. fibrinogen to vitronectin receptors (such as e.g. αvβ3, αvβ5, αvβ6, αvβ8, etc. or to the fibrinogen receptor (αIIbβ3) by compounds of formula (I) can be determined as described by L. Alig et al. (J.Med.Chem. 1992, 35, 4393-4407).
In detail thereto, the wells of microtiter plates (Nunc-Immunoplate MaxiSorp) were coated overnight at 4° C. with the vitronectin receptor αvβ3 (from human placenta, 100 μl/well) in a buffer system with 150 mmol/1 NaCl, 1 mmol/CaCl2, 1 mmol/1 MgCl2, 0.0005% Triton X-100 and 20 mmol/1 Tris HCl, pH 7.4. The non-specific binding sites were blocked by incubation with 3.5% bovine serum albumin (BSA from Fluka) at 20° C. for at least 1 h. Before the beginning of the test the plates were washed in each case once with 150 mmol/1 NaCl, 1 mmol/1 CaCl2, 1 mmol/1 MgCl2 and 20 mmol/1 Tris HCl, pH 7.4 (buffer A). The thus-coated plates can be stored for at least 2 months in the presence of 0.05% NaN3 (in buffer A) at 4° C. in a humidity chamber without loss of binding activity. Fibrinogen (IMCO, free from fibronectin) was diluted to 1.5 μg/ml in buffer A in the presence of 1% BSA. The wells coated with the receptor were incubated with fibrinogen (100 μl/well) overnight at room temperature in the absence of or in the presence of increasing concentrations of RGDS (as the reference substance, H-Arg-Gly-Asp-Ser-OH) or the compounds to be measured. Non-bound fibrinogen was removed by three-fold washing with buffer A, bound fibrinogen was detected by an enzyme linked immunosorbent assay (ELISA) procedure. Antibodies of rabbits directed against human fibrinogen (Dakopatts, Denmark), diluted in buffer A in the presence of 0.1% BSA, were added at room temperature for 1 h., followed by incubation with biotinylated antibodies directed against rabbit immunoglobulin (Amersham) for 30 min. […] After addition of the peroxidase substrate ABTS (2,2'-azino-bis(3-ethylbenzothiazoline-6-sulphonic acid), Boehringer Mannheim) the enzyme activity was measured with a multichannel photometer (UVmax, Molecular Devices). […]

T1 sequence (P06756 31-889 limits assumed): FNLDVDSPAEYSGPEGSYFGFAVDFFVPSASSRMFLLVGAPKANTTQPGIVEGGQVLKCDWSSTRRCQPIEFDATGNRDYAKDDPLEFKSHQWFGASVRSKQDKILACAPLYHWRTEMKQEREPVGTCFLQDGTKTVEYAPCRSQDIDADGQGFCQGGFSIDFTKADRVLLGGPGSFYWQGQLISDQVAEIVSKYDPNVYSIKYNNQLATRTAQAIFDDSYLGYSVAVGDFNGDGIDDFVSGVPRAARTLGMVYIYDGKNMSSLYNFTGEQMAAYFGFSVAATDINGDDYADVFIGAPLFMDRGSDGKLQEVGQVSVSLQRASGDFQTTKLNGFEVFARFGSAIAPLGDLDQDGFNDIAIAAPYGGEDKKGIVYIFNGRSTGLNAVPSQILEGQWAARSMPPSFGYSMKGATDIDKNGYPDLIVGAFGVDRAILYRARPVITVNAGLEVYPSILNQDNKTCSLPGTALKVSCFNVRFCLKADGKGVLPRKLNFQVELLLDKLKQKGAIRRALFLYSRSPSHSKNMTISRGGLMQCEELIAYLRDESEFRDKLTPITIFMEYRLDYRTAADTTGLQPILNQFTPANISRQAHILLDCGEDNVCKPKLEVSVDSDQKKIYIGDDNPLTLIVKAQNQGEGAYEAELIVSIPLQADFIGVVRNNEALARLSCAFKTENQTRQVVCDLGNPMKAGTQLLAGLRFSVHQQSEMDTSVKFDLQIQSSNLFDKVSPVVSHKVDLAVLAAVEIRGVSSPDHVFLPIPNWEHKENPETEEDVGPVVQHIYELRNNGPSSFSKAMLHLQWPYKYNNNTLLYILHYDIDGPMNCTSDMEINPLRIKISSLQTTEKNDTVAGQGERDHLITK
T1 sequence (P06756 891-1048 limits assumed): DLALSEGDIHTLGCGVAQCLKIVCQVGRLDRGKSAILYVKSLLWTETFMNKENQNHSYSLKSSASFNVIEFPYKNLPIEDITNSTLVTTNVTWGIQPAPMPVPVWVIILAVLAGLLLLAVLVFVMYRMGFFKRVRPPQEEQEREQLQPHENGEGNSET
T1 sequence (P05106 27-788): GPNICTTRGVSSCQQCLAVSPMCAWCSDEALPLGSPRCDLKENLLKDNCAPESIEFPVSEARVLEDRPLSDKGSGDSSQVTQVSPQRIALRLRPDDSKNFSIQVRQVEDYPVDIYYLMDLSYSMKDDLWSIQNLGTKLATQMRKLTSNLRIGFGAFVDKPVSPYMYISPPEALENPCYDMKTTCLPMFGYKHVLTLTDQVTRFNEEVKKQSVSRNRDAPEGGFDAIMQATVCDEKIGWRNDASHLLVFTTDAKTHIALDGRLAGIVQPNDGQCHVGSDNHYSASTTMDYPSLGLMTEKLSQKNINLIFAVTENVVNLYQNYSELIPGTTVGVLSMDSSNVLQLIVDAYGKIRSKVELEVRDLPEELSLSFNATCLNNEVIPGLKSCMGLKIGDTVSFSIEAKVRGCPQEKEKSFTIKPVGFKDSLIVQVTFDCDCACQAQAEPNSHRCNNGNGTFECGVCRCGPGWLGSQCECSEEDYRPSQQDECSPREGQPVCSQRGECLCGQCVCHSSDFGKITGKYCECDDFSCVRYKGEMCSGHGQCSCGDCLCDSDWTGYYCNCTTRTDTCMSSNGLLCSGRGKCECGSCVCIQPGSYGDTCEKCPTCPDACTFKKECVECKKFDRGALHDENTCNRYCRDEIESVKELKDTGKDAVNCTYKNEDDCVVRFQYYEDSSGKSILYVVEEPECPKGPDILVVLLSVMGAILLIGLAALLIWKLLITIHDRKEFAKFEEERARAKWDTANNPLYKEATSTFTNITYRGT

| SMILES | IC50 [nM] |
| --- | --- |
| O=C(O)COc1ccc(NC(=O)c2csc(NC(=O)NCc3ccccc3)n2)cc1C(=O)O [5-{[2-(3-benzyl-ureido)-thiazole-4-carbonyl]-amino}-2-carboxymethoxy-benzoic acid] | 1.3 |
| COc1cc(NC(=O)c2csc(NC(=O)NCc3ccccc3)n2)ccc1OCC(=O)O [(4-{[2-(3-benzyl-ureido)-thiazole-4-carbonyl]-amino}-2-methoxy-phenoxy)-acetic acid] | 0.2 |
| O=C(O)COc1ccc(NC(=O)c2csc(NC(=O)NCc3ccccc3)n2)cc1 [[4-[[2-(3-benzyl-ureido)-thiazole-4-carbonyl]-amino]-phenoxy]-acetic acid] | 1 |
